Experiments:
[1] = system: Tyrosine-protein kinase ABL1 (Homo sapiens), P00519 [E255K]; settings: Compound concentration 1000.0 nM
[2] = system: Tyrosine-protein kinase ABL1 (Homo sapiens), P00519 [F317I]; settings: Compound concentration 1000.0 nM
[3] = system: Tyrosine-protein kinase ABL1 (Homo sapiens), P00519 [H396P]; settings: Compound concentration 1000.0 nM
[4] = molecular target: Tyrosine-protein kinase ABL1 (Homo sapiens) (UniProt P00519); settings: Compound concentration 1000.0 nM
[5] = molecular target: Cyclin-dependent kinase 11B (Homo sapiens) (UniProt P21127); settings: Compound concentration 1000.0 nM
[6] = molecular target: Cyclin-dependent kinase 7 (Homo sapiens) (UniProt P50613); settings: Compound concentration 1000.0 nM
[7] = molecular target: Serine/threonine-protein kinase Chk1 (Homo sapiens) (UniProt O14757); settings: Compound concentration 1000.0 nM
[8] = molecular target: Dual specificity protein kinase CLK1 (Homo sapiens) (UniProt P49759); settings: Compound concentration 1000.0 nM
[9] = molecular target: Macrophage colony-stimulating factor 1 receptor (Homo sapiens) (UniProt P07333); settings: Compound concentration 1000.0 nM
[10] = molecular target: Death-associated protein kinase 1 (Homo sapiens) (UniProt P53355); settings: Compound concentration 1000.0 nM
[11] = molecular target: Death-associated protein kinase 2 (Homo sapiens) (UniProt Q9UIK4); settings: Compound concentration 1000.0 nM
[12] = molecular target: Epithelial discoidin domain-containing receptor 1 (Homo sapiens) (UniProt Q08345); settings: Compound concentration 1000.0 nM
[13] = system: Epidermal growth factor receptor (Homo sapiens), P00533 [UNDEFINED MUTATION]; settings: Compound concentration 1000.0 nM
[14] = system: Epidermal growth factor receptor (Homo sapiens), P00533 [L858R,T790M]; settings: Compound concentration 1000.0 nM
[15] = molecular target: Eukaryotic translation initiation factor 2-alpha kinase 1 (Homo sapiens) (UniProt Q9BQI3); settings: Compound concentration 1000.0 nM
[16] = molecular target: Ephrin type-A receptor 4 (Homo sapiens) (UniProt P54764); settings: Compound concentration 1000.0 nM
[17] = molecular target: Fibroblast growth factor receptor 2 (Homo sapiens) (UniProt P21802); settings: Compound concentration 1000.0 nM
[18] = system: Fibroblast growth factor receptor 3 (Homo sapiens), P22607 [G697C]; settings: Compound concentration 1000.0 nM
[19] = system: Receptor-type tyrosine-protein kinase FLT3 (Homo sapiens), P36888 [R834Q]; settings: Compound concentration 1000.0 nM
[20] = molecular target: Receptor-type tyrosine-protein kinase FLT3 (Homo sapiens) (UniProt P36888); settings: Compound concentration 1000.0 nM
[21] = molecular target: Cyclin-G-associated kinase (Homo sapiens) (UniProt O14976); settings: Compound concentration 1000.0 nM
[22] = molecular target: Beta-adrenergic receptor kinase 1 (Homo sapiens) (UniProt P25098); settings: Compound concentration 1000.0 nM
[23] = molecular target: Serine/threonine-protein kinase ICK (Homo sapiens) (UniProt Q9UPZ9); settings: Compound concentration 1000.0 nM
[24] = molecular target: Inhibitor of nuclear factor kappa-B kinase subunit epsilon (Homo sapiens) (UniProt Q14164); settings: Compound concentration 1000.0 nM
[25] = molecular target: Interleukin-1 receptor-associated kinase 3 (Homo sapiens) (UniProt Q9Y616); settings: Compound concentration 1000.0 nM
[26] = molecular target: Mitogen-activated protein kinase kinase kinase 2 (Homo sapiens) (UniProt Q9Y2U5); settings: Compound concentration 1000.0 nM
[27] = molecular target: Serine/threonine-protein kinase 26 (Homo sapiens) (UniProt Q9P289); settings: Compound concentration 1000.0 nM
[28] = molecular target: Mitogen-activated protein kinase 11 (Homo sapiens) (UniProt Q15759); settings: Compound concentration 1000.0 nM
[29] = system: Phosphatidylinositol 4,5-bisphosphate 3-kinase catalytic subunit alpha isoform (Homo sapiens), P42336 [E545K]; settings: Compound concentration 1000.0 nM
[30] = molecular target: Phosphatidylinositol 4-phosphate 5-kinase type-1 gamma (Homo sapiens) (UniProt O60331); settings: Compound concentration 1000.0 nM
[31] = molecular target: Interferon-induced, double-stranded RNA-activated protein kinase (Homo sapiens) (UniProt P19525); settings: Compound concentration 1000.0 nM
[32] = molecular target: Serine/threonine-protein kinase RIO1 (Homo sapiens) (UniProt Q9BRS2); settings: Compound concentration 1000.0 nM
[33] = molecular target: Serine/threonine-protein kinase SBK1 (Homo sapiens) (UniProt Q52WX2); settings: Compound concentration 1000.0 nM
[34] = molecular target: SRSF protein kinase 2 (Homo sapiens) (UniProt P78362); settings: Compound concentration 1000.0 nM
[35] = molecular target: Serine/threonine-protein kinase tousled-like 1 (Homo sapiens) (UniProt Q9UKI8); settings: Compound concentration 1000.0 nM
[36] = molecular target: Tyrosine-protein kinase TXK (Homo sapiens) (UniProt P42681); settings: Compound concentration 1000.0 nM
[37] = molecular target: Wee1-like protein kinase 2 (Homo sapiens) (UniProt P0C1S8); settings: Compound concentration 1000.0 nM
[38] = molecular target: T1, Muscarinic acetylcholine receptor M2 (Homo sapiens) (UniProt P08172); settings: Compound concentration 10.0 uM
T1 sequence (whole entry): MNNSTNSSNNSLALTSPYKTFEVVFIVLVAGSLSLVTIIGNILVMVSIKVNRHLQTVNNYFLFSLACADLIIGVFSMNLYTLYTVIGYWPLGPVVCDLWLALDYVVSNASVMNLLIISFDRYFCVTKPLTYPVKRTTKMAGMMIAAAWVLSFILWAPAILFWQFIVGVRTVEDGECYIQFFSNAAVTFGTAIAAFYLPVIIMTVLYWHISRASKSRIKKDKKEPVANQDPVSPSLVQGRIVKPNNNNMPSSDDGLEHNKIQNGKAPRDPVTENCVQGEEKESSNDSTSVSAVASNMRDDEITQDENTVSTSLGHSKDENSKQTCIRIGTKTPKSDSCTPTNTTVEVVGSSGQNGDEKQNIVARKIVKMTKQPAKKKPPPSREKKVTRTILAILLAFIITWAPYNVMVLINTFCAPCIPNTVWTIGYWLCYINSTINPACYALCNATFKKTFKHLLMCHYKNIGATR

Sequence of Death-associated protein kinase 1 (Homo sapiens) (P53355 whole entry, looked up): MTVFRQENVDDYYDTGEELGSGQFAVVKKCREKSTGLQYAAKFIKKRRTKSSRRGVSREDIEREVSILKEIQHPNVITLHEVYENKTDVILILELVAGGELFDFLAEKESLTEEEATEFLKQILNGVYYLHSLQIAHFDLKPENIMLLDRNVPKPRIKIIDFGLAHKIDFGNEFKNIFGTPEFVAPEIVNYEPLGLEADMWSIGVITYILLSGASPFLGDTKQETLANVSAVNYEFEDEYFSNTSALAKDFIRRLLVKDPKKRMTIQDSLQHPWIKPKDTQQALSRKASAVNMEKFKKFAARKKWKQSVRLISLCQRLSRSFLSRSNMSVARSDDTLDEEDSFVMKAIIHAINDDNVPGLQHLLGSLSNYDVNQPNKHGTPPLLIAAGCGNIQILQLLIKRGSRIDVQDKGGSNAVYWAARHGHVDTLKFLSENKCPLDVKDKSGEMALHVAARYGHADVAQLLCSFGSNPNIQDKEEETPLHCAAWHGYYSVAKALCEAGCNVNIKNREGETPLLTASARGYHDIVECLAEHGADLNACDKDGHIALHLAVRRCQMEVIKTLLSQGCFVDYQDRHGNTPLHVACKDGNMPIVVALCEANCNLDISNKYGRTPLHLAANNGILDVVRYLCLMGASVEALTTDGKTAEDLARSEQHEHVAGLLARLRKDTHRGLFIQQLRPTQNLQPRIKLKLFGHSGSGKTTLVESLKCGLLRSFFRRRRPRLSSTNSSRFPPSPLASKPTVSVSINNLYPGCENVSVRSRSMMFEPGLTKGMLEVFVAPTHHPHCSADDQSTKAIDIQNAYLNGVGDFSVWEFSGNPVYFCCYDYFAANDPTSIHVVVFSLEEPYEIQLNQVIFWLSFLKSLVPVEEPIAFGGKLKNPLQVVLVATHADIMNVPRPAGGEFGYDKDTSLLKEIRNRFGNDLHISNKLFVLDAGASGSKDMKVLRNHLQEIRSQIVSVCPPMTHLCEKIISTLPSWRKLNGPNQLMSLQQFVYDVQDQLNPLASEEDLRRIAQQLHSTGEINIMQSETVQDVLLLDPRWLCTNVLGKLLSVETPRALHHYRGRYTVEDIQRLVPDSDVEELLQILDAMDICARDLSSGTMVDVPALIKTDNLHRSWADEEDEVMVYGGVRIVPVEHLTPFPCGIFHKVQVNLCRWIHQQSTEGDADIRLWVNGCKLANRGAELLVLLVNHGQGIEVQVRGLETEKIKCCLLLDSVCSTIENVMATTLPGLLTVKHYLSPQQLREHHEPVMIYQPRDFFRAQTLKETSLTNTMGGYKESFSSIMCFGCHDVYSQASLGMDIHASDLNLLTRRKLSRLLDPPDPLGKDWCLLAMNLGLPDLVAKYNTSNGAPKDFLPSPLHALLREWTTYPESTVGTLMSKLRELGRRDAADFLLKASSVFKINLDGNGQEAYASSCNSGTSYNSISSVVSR
Sequence of Fibroblast growth factor receptor 3 (Homo sapiens), P22607 [G697C] (P22607 whole entry G697C): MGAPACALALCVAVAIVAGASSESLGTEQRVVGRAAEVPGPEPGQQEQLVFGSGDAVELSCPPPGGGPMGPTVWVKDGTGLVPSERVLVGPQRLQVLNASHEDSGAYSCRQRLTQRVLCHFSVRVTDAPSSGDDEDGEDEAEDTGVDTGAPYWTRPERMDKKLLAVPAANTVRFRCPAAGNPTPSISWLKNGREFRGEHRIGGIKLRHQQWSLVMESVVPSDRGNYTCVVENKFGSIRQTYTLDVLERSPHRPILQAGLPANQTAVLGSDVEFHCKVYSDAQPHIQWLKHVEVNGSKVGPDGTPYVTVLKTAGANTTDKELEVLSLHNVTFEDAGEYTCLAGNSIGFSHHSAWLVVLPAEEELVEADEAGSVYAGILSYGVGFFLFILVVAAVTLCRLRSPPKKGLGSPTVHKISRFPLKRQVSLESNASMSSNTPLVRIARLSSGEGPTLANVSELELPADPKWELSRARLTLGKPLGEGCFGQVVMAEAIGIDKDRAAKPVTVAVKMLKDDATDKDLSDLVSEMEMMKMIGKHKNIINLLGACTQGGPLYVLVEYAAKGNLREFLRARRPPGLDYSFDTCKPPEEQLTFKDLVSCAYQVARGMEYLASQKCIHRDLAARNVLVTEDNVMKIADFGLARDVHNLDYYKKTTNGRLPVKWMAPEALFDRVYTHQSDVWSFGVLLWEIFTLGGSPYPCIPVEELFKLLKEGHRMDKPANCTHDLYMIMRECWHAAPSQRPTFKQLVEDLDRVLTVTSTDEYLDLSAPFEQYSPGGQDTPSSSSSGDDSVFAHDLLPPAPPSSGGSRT
Sequence of Dual specificity protein kinase CLK1 (Homo sapiens) (P49759 whole entry, looked up): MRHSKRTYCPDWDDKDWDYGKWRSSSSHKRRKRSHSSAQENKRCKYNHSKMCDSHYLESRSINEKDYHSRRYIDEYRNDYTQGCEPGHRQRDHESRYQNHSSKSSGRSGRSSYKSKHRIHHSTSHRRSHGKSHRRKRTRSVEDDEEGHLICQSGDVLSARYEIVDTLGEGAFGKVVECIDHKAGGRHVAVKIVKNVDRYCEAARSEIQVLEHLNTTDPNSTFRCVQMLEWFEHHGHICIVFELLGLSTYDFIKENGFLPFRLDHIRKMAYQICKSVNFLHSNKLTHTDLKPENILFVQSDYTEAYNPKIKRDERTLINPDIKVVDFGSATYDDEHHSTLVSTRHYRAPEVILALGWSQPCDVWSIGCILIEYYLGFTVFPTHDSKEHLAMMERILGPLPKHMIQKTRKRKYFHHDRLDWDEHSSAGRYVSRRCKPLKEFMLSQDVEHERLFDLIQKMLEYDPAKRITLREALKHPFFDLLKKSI
Sequence of Serine/threonine-protein kinase RIO1 (Homo sapiens) (Q9BRS2 whole entry): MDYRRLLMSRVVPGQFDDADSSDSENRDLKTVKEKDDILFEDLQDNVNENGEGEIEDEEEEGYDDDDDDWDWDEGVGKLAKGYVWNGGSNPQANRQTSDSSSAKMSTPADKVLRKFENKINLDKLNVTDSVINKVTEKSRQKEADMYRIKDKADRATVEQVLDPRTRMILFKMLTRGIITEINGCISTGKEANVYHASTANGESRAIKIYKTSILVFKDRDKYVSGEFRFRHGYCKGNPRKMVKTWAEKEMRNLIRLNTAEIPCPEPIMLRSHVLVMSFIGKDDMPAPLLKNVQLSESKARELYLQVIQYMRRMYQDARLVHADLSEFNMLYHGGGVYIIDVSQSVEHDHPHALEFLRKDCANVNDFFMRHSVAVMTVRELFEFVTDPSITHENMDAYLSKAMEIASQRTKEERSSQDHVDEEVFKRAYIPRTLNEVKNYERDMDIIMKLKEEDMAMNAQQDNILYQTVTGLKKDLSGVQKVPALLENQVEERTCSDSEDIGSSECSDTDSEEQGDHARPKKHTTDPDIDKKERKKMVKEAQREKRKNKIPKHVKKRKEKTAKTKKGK
Sequence of SRSF protein kinase 2 (Homo sapiens) (P78362 whole entry, looked up): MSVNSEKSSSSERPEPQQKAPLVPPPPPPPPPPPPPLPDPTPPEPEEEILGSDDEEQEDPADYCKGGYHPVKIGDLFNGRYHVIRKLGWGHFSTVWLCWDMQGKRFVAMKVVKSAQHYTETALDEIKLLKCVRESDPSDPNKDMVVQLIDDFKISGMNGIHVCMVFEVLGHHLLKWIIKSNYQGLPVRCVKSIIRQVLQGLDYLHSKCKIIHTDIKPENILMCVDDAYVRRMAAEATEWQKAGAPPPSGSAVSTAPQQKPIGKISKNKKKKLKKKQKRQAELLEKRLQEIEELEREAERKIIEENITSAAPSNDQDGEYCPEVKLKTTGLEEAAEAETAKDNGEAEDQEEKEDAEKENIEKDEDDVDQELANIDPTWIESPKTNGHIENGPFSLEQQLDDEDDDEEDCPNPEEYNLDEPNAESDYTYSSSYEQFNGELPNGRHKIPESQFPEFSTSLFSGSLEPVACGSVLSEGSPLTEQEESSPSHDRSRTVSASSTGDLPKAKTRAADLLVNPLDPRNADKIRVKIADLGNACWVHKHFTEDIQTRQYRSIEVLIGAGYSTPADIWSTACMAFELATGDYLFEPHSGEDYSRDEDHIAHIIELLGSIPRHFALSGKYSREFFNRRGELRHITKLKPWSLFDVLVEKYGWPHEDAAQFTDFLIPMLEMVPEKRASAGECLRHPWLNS
Sequence of Epithelial discoidin domain-containing receptor 1 (Homo sapiens) (Q08345 whole entry, the tested form may be a part): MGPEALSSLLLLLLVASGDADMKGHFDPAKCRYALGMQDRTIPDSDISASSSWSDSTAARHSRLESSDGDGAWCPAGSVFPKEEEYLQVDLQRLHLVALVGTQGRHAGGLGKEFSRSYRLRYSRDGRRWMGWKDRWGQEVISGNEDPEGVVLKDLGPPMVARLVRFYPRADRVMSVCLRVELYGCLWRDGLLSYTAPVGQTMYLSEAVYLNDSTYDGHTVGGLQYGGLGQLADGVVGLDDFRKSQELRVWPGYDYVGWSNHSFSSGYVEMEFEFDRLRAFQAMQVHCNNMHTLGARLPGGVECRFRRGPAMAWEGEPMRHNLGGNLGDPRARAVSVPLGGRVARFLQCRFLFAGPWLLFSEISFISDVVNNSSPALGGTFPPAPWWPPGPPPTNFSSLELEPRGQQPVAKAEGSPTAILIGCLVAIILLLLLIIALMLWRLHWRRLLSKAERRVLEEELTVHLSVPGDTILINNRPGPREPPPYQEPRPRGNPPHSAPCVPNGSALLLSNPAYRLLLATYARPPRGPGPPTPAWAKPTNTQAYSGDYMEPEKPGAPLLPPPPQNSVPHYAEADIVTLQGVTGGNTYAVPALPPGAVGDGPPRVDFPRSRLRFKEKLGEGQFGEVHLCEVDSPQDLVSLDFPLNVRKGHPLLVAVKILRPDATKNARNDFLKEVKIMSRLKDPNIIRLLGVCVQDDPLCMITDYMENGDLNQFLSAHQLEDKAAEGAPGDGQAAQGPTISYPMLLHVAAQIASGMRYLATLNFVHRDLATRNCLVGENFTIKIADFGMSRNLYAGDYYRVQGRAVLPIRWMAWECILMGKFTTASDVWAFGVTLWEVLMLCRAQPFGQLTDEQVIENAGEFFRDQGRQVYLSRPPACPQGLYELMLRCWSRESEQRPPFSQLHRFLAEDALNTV

SMILES	residual activity [1] [%]	residual activity [2] [%]	residual activity [3] [%]	residual activity [4] [%]	residual activity [5] [%]	residual activity [6] [%]	residual activity [7] [%]	residual activity [8] [%]	residual activity [9] [%]	residual activity [10] [%]	residual activity [11] [%]	residual activity [12] [%]	residual activity [13] [%]	residual activity [14] [%]	residual activity [15] [%]	residual activity [16] [%]	residual activity [17] [%]	residual activity [18] [%]	residual activity [19] [%]	residual activity [20] [%]	also measured
CCCCN(CCCC)C(=O)CN1C[C@@H](c2cc(OC)c3c(c2)OCO3)[C@H](C(=O)O)[C@H]1CC(C)(C)CCC [A-545]	93.5	100	100	94.8	100	89.5	100	100	100	82.8	99.6	100	88.4	100	100	95.7	83.2	94	80.6	97.4	residual activity [21]: 95.8%; residual activity [22]: 97.8%; residual activity [23]: 83.5%; residual activity [24]: 89.7%; residual activity [25]: 85%; residual activity [26]: 84.6%; residual activity [27]: 100%; residual activity [28]: 99.2%; residual activity [29]: 91%; residual activity [30]: 100%; residual activity [31]: 100%; residual activity [32]: 100%; residual activity [33]: 90.6%; residual activity [34]: 100%; residual activity [35]: 82.4%; residual activity [36]: 100%; residual activity [37]: 89.1%; inhibition [38]: 3.71%
CCCCN(CCCC)C(=O)CN1C[C@H](c2cc(OC)c3c(c2)OCO3)[C@@H](C(=O)O)[C@@H]1CC(C)(C)CCC [ABT-546]	83.7	98.5	96.1	96.5	86.4	100	100	96.1	43	100	100	95.5	94.3	60.6	100	100	100	80.2	64.2	76	residual activity [21]: 100%; residual activity [22]: 71.8%; residual activity [23]: 80.2%; residual activity [24]: 80.9%; residual activity [25]: 100%; residual activity [26]: 81.2%; residual activity [27]: 72.9%; residual activity [28]: 94.2%; residual activity [29]: 70%; residual activity [30]: 65.9%; residual activity [31]: 100%; residual activity [32]: 65.8%; residual activity [33]: 76.5%; residual activity [34]: 100%; residual activity [35]: 100%; residual activity [36]: 94.3%; residual activity [37]: 100%; inhibition [38]: -1.89%
